# Read-outs that look alike come from different tables or passages of the source.
# What was measured:
# Streptococcus agalactiae = assay: MIC, 20-strain panel; type: cell-based
# Outline: (§1)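 Each of the 20 strains is tested in LB at a 1:10000 dilution of a growing subculture. Compound is titrated 2-fold in three replicates; a DMSO column serves as vehicle control. After shaking incubation at 37° C. for 16-18 hours, MIC is taken as the lowest clear concentration.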
# Streptococcus pyogenes = assay: MIC, 20-strain panel; type: cell-based
# Outline: as §1
# E. coli MG1655 = assay: MIC, 20-strain panel; type: cell-based; settings: Escherichia coli, read-out: MIC
# Outline: as §1
# Bacillus subtilis 168 = assay: MIC, 20-strain panel; type: cell-based
# Outline: as §1
# [1] = system: Salmonella enterica subsp. enterica typhimurium; assay: MIC, 20-strain panel; type: cell-based
# Outline: as §1
# [2] = system: Staphylococcus aureus subsp. aureus; assay: MIC, 20-strain panel; type: cell-based; settings: read-out: MIC
# Outline: as §1
# [3] = system: Staphylococcus saprophyticus subsp. saprophyticus; assay: MIC, 20-strain panel; type: cell-based
# Outline: as §1
# Enterococcus faecalis = assay: MIC, 20-strain panel; type: cell-based; settings: Table 7, separate set of experiments
# Outline: as §1
# Enterococcus faecium = assay: MIC, 20-strain panel; type: cell-based
# Outline: as §1
# Shigella flexneri = assay: MIC, 20-strain panel; type: cell-based
# Outline: as §1
# E. coli JW5503 (deltolC) = assay: MIC, 20-strain panel; type: cell-based; settings: Escherichia coli
# Outline: as §1
# Bacillus cereus = assay: MIC, 20-strain panel; type: cell-based
# Outline: as §1
# [4] = system: Staphylococcus epidermidis; assay: MIC, 20-strain panel; type: cell-based
# Outline: as §1
# [5] = system: Morganella morganii subsp. morganii; assay: MIC, 20-strain panel; type: cell-based
# Outline: as §1
# [6] = system: Klebsiella pneumoniae subsp. pneumoniae; assay: MIC, 20-strain panel; type: cell-based
# Outline: as §1
# Pseudomonas aeruginosa = assay: MIC, microdilution in 96-well plates; type: cell-based
# Outline: as §1
# Edwardsiella tarda = assay: MIC, microdilution in 96-well plates; type: cell-based
# Outline: as §1
# Acinetobacter baumannii = assay: MIC, microdilution in 96-well plates; type: cell-based
# Outline: as §1
# Enterobacter aerogenes = assay: MIC, microdilution in 96-well plates; type: cell-based; settings: Klebsiella aerogenes
# Outline: as §1
# E. coli BW25113 = assay: MIC, microdilution in 96-well plates; type: cell-based; settings: Escherichia coli, read-out: MIC
# Outline: as §1
# [7] = system: E. coli BW25113 ΔtolC gyrR isolate GyrA His45Tyr; assay: MIC against gyramide-resistant mutant
# Procedure: (§2) A microdilution method in 96-well plates was used and the MIC protocol established by the Clinical Laboratory Standards Institute was followed. From a growing subculture, a 1:10000 inoculum of each strain in Luria-Bertani media was prepared and aliquoted 100 μL in 4 columns of wells, except for the top row wells, which contained 200 μL of inoculum. […] The liquid in each of wells was mixed with a multi-channel pipet and 100 μL was transferred to the next well and mixed. The 2-fold dilution was continued down the 96-well plate until 100 μL was left, which was discarded. The plates were incubated at 37° C. with shaking for 16-18 hours. The MIC was determined as the lowest concentration that inhibited growth and had no turbidity by visual inspection.
# [8] = system: E. coli BW25113 ΔtolC gyrR isolate GyrA Phe96Leu; assay: MIC against gyramide-resistant mutant
# Procedure: as §2
# [9] = system: E. coli BW25113 ΔtolC gyrR isolate GyrB Thr508Met; assay: MIC against gyramide-resistant mutant
# Procedure: as §2
# [10] = system: E. coli BW25113 ΔtolC gyrR isolate GyrA Pro35Thr; assay: MIC against gyramide-resistant mutant
# Procedure: as §2
# E. coli BW25113 ΔtolC = assay: MIC, microdilution in 96-well plates; settings: Table 4
# [11] = system: E. coli BW25113 ΔtolC gyrR isolate GyrA Ser97Pro; assay: MIC against gyramide-resistant mutant
# Procedure: as §2
# [12] = Table 7, separate set of experiments, read-out: MIC
# [13] = MG1655, E. coli MG1655, Table 7, separate set of experiments
# [14] = 20-strain screen of Table 6, read-out: MIC
# [15] = Table 7, separate set of experiments
# [16] = F: Salmonella enterica subsp. enterica Typhimurium
# [17] = Salmonella enterica subsp. enterica typhimurium, Table 7, separate set of experiments
# [18] = H: Staphylococcus aureus subsp. aureus
# [19] = E. coli JW5503 (deltolC), Table 7, separate set of experiments
# [20] = BW25113, E. coli BW25113, Table 7, separate set of experiments
# [21] = E: Klebsiella pneumoniae subsp. pneumoniae
# [22] = Klebsiella pneumoniae subsp. pneumoniae, Table 7, separate set of experiments
smiles,measurement,setting,value
Cc1ccc(C(F)(F)F)cc1S(=O)(=O)N[C@@H]1CCN(Cc2ccc(OC3CC3)cc2)C1 [Compound 91],MIC,"Streptococcus agalactiae; K: Streptococcus agalactiae, read-out: MIC",8 µg/mL
same,MIC,Streptococcus agalactiae; [12],8 µg/mL
same,MIC,"Streptococcus pyogenes; L: Streptococcus pyogenes, read-out: MIC",4 µg/mL
same,MIC,Streptococcus pyogenes; [12],4 µg/mL
same,MIC,"E. coli MG1655; MG1655, A: E. coli MG1655",4 µg/mL
same,MIC,E. coli MG1655; [13],8 µg/mL
same,MIC,Bacillus subtilis 168; [14],8 µg/mL
same,MIC,Bacillus subtilis 168; [15],8 µg/mL
same,MIC,[1]; [16],4 µg/mL
same,MIC,[1]; [17],4 µg/mL
same,MIC,[2]; [18],4 µg/mL
same,MIC,"[2]; Staphylococcus aureus subsp. aureus, Table 7, separate set of experiments",8 µg/mL
same,MIC,"[3]; I: Staphylococcus saprophyticus subsp. saprophyticus, read-out: MIC",8 µg/mL
same,MIC,"[3]; Staphylococcus saprophyticus subsp. saprophyticus, Table 7, separate set of experiments, read-out: MIC",8 µg/mL
same,MIC,Enterococcus faecalis,16 µg/mL
same,MIC,Enterococcus faecium; [14],8 µg/mL
same,MIC,Enterococcus faecium; [15],8 µg/mL
same,MIC,Shigella flexneri; G: Shigella flexneri,8 µg/mL
same,MIC,Shigella flexneri; [15],4 µg/mL
same,MIC,E. coli JW5503 (deltolC); C: E. coli JW5503 (deltolC),< 0.0625 µg/mL
same,MIC,E. coli JW5503 (deltolC); [19],< 0.0078 µg/mL
same,MIC,Bacillus cereus; [14],8 µg/mL
same,MIC,Bacillus cereus; [15],8 µg/mL
same,MIC,"[4]; J: Staphylococcus epidermidis, read-out: MIC",2 µg/mL
same,MIC,[4]; [12],8 µg/mL
same,MIC,"[5]; Morganella morganii subsp. morganii, Table 7, separate set of experiments, read-out: MIC",> 16 µg/mL
same,MIC,"[6]; E: Klebsiella pneumoniae subsp. pneumoniae, read-out: MIC",> 8 µg/mL
same,MIC,"[6]; Klebsiella pneumoniae subsp. pneumoniae, Table 7, separate set of experiments, read-out: MIC",> 16 µg/mL
same,MIC,Pseudomonas aeruginosa; [12],> 16 µg/mL
same,MIC,"Edwardsiella tarda; D: Edwardsiella tarda, read-out: MIC",8 µg/mL
same,MIC,Edwardsiella tarda; [12],8 µg/mL
same,MIC,Acinetobacter baumannii; [12],> 16 µg/mL
same,MIC,"Enterobacter aerogenes; Enterobacter aerogenes, Table 7, separate set of experiments, read-out: MIC",> 16 µg/mL
same,MIC,"E. coli BW25113; BW25113, B: E. coli BW25113",8 µg/mL
same,MIC,E. coli BW25113; [20],8 µg/mL
Cc1ccc(F)cc1S(=O)(=O)NC1CCN(Cc2ccc(OC(C)C)cc2)C1 (stereo not drawn) [Gyramide A],MIC,[7]; gyrR isolate GyrA His45Tyr,320 µM
same,MIC,[8]; gyrR isolate GyrA Phe96Leu,320 µM
same,MIC,[9]; gyrR isolate GyrB Thr508Met,320 µM
same,MIC,[10]; gyrR isolate GyrA Pro35Thr,320 µM
same,MIC,E. coli BW25113 ΔtolC; E. coli BW25113 ΔtolC (parent strain),20 µM
same,MIC,[11]; gyrR isolate GyrA Ser97Pro,320 µM
"CO[C@@H]1[C@@H](OC(N)=O)[C@@H](O)[C@H](Oc2ccc3c(O)c(NC(=O)c4ccc(O)c(CC=C(C)C)c4)c(=O)oc3c2C)OC1(C)C [Novobiocin, novobiocin]",MIC,"[7]; Escherichia coli, BW25113",1.25 µM
same,MIC,"[8]; Escherichia coli, BW25113",1.25 µM
same,MIC,"[9]; Escherichia coli, BW25113",1.25 µM
same,MIC,"[10]; Escherichia coli, BW25113",1.25 µM
same,MIC,"E. coli BW25113 ΔtolC; Escherichia coli, BW25113, E. coli BW25113 ΔtolC (parent strain)",1.25 µM
same,MIC,"[11]; Escherichia coli, BW25113",1.25 µM
N#Cc1ccc(Cl)c(S(=O)(=O)N[C@@H]2CCN(Cc3ccc(OC4CC4)cc3)C2)c1 [Compound 77],MIC,Streptococcus agalactiae,> 8 µg/mL
same,MIC,Streptococcus pyogenes,> 8 µg/mL
same,MIC,"E. coli MG1655; MG1655, A: E. coli MG1655",8 µg/mL
same,MIC,E. coli MG1655; [13],16 µg/mL
same,MIC,[1]; [16],1 µg/mL
same,MIC,[1]; [17],2 µg/mL
same,MIC,[2]; [18],> 8 µg/mL
same,MIC,[3],> 8 µg/mL
same,MIC,Shigella flexneri; G: Shigella flexneri,4 µg/mL
same,MIC,Shigella flexneri; [15],4 µg/mL
same,MIC,E. coli JW5503 (deltolC); C: E. coli JW5503 (deltolC),0.125 µg/mL
same,MIC,E. coli JW5503 (deltolC); [19],0.125 µg/mL
same,MIC,[4],> 8 µg/mL
same,MIC,[5]; Morganella morganii,> 16 µg/mL
same,MIC,[6]; [21],~8 µg/mL
same,MIC,[6]; [22],> 16 µg/mL
same,MIC,Pseudomonas aeruginosa,> 16 µg/mL
same,MIC,Edwardsiella tarda; D: Edwardsiella tarda,8 µg/mL
same,MIC,Edwardsiella tarda; [15],16 µg/mL
same,MIC,Acinetobacter baumannii,> 16 µg/mL
same,MIC,Enterobacter aerogenes,> 16 µg/mL
same,MIC,"E. coli BW25113; BW25113, B: E. coli BW25113",8 µg/mL
same,MIC,E. coli BW25113; [20],8 µg/mL
Cc1ccc(C#N)cc1S(=O)(=O)N[C@@H]1CCN(Cc2ccc(OC3CC3)cc2)C1 [Compound 113],MIC,Streptococcus agalactiae,> 8 µg/mL
same,MIC,Streptococcus pyogenes,> 8 µg/mL
same,MIC,"E. coli MG1655; MG1655, A: E. coli MG1655",~8 µg/mL
same,MIC,E. coli MG1655; [13],16 µg/mL
same,MIC,[1]; [16],2 µg/mL
same,MIC,[1]; [17],4 µg/mL
same,MIC,[2]; [18],> 8 µg/mL
same,MIC,[3],> 8 µg/mL
same,MIC,Shigella flexneri; G: Shigella flexneri,~8 µg/mL
same,MIC,Shigella flexneri; [15],8 µg/mL
same,MIC,E. coli JW5503 (deltolC); C: E. coli JW5503 (deltolC),0.25 µg/mL
same,MIC,E. coli JW5503 (deltolC); [19],0.125 µg/mL
same,MIC,[4],> 8 µg/mL
same,MIC,[5]; Morganella morganii,> 16 µg/mL
same,MIC,[6]; [21],> 8 µg/mL
same,MIC,[6]; [22],> 16 µg/mL
same,MIC,Pseudomonas aeruginosa,> 16 µg/mL
same,MIC,Edwardsiella tarda; D: Edwardsiella tarda,~8 µg/mL
same,MIC,Edwardsiella tarda; [15],16 µg/mL
same,MIC,Acinetobacter baumannii,> 16 µg/mL
same,MIC,Enterobacter aerogenes,> 16 µg/mL
same,MIC,"E. coli BW25113; BW25113, B: E. coli BW25113",~8 µg/mL
same,MIC,E. coli BW25113; [20],8 µg/mL

# From patent US10253039B2, “Inhibitors of bacterial DNA gyrase with efficacy against gram-negative bacteria” (priority 2014, dated 2019)
